Molecular target: human PAD4 (Homo sapiens (Human), UniProt Q9UM07)
Test: In Vitro PAD4 BAEE Biochemical Assay
Settings: geometric mean of multiple experiments
Summary of the method: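 Recombinant human PAD4 (His-SUMO tag removed, E. coli-expressed), 5 nM, preincubated with compound and 2 mM CaCl2 30 min at 25 °C in MOPS pH 7.6 with DTT; 3 mM BAEE added for 2 h at 25 °C, EDTA stop. Released ammonia detected by o-phthalaldehyde/DTT fluorescence (ex 405, em 535 nm).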

[1] = human PAD4, BAEE substrate, 5 nM PAD4, 2 mM calcium chloride, 3 mM BAEE
[2] = recombinant PAD4 5 nM, 2 mM calcium chloride, 3 mM BAEE substrate

Chain of human PAD4 (Q9UM07 2-663): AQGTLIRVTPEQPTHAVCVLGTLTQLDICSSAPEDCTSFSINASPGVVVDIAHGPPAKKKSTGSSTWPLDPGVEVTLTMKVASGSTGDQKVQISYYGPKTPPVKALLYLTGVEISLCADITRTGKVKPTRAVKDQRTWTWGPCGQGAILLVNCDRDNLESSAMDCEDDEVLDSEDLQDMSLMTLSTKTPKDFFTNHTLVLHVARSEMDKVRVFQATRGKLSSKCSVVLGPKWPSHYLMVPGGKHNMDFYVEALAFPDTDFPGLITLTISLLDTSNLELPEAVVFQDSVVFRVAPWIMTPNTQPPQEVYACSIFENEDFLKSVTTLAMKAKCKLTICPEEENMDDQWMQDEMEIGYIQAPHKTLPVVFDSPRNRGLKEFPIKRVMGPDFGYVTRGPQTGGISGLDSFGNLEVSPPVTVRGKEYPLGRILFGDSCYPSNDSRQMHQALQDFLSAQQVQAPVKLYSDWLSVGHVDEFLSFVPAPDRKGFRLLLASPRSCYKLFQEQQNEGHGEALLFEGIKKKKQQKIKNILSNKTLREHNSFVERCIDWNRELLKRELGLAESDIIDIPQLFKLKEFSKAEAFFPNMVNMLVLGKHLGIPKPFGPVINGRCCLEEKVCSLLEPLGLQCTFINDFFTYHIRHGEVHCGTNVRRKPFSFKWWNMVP

IC50 [1] [nM] | IC50 [2] [nM] | SMILES
28.4 | – | C[C@H]1CCCS(=O)(=O)N1c1ccc2cc(-c3nc4cc(C(=O)N5CCC[C@@H](N)C5)ccc4n3C3CC3)n(CC3CC3)c2n1 [Example 99, ((R)-3-aminopiperidin-1-yl)(1-cyclopropyl-2-(1-(cyclopropylmethyl)-6-((S)-3-methyl-1,1-dioxido-1,2-thiazinan-2-yl)-1H-pyrrolo[2,3-b]pyridin-2-yl)-1H-benzo[d]imidazol-5-yl) methanone]
116 | – | COc1cc(C(=O)N2CCC[C@@H](N)C2)cc2nc(-c3cc4cc(F)c([C@@H](C)NC(=O)c5cnn(C)c5)cc4n3CC3CC3)n(C)c12 [Example 150, N-((R)-1-(2-(5-((R)-3-aminopiperidine-1-carbonyl)-7-methoxy-1-methyl-1H-benzo[d]imidazol-2-yl)-1-(cyclopropylmethyl)-5-fluoro-1H-indol-6-yl)ethyl)-1-methyl-1H-pyrazole-4-carboxamide]
5150 | – | CCN(C(=O)OC)c1ccc2cc(-c3nc4cc(C(=O)N5CCC[C@@H](N)C5)ccc4n3C3CC3)n(CC3CC3)c2n1 [Example 112, (R)-methyl (2-(5-(3-aminopiperidine-1-carbonyl)-1-cyclopropyl-1H-benzo[d]imidazol-2-yl)-1-(cyclopropylmethyl)-1H-pyrrolo [2,3-b]pyridin-6-yl) (ethyl)carbamate]
79.3 | – | COc1cc(C(=O)N2C[C@H]3CC[C@@H]2[C@@H]3N)cc2nc(-c3cc4ccc(N5[C@@H](C)CCCS5(=O)=O)nc4n3CC3CC3)n(C)c12 [Example 104, ((1R,4R,7R)-7-amino-2-azabicyclo[2.2.1]heptan-2-yl) (2-(1-(cyclopropylmethyl)-6-((S)-3-methyl-1,1-dioxido-1,2-thiazinan-2-yl)-1H-pyrrolo[2,3-b]pyridin-2-yl)-7-methoxy-1-methyl-1H-benzo[d]imidazol-5-yl) methanone]
– | 101 | COc1cc(C(=O)N2C[C@H](N)[C@@H]3CC[C@H]2C3)cc2nc(-c3cc4ccc([C@@H](C)NC(=O)C5(C)CC(F)(F)C5)nc4n3CC3CC3)n(C)c12 [Example 328, N-((R)-1-(2-(5-((1S,4R,5R)-4-amino-2-azabicyclo[3.2.1]octane-2-carbonyl)-7-methoxy-1-methyl-1H-benzo[d]imidazol-2-yl)-1-(cyclopropylmethyl)-1H-pyrrolo[2,3-b]pyridin-6-yl)ethyl)-3,3-difluoro-1-methylcyclobutane-1-carboxamide]
434 | – | COc1cc(C(=O)N2CCC[C@@H](N)C2)cc2nc(-c3cc4ccc(N5CCCN(C)S5(=O)=O)nc4n3CC3CC3)n(C)c12 [Example 106, (R)-(3-aminopiperidin-1-yl)(2-(1-(cyclopropylmethyl)-6-(6-methyl-1,1-dioxido-1,2,6-thiadiazinan-2-yl)-1H-pyrrolo[2,3-b]pyridin-2-yl)-7-methoxy-1-methyl-1H-benzo[d]imidazol-5-yl)methanone]
269 | – | COc1cc(C(=O)N2C[C@H](N)CC[C@@H]2C)cc2nc(-c3cc4ccc(-c5cccnc5S(C)(=O)=O)nc4n3CC3CC3)n(C)c12 [Example 265, ((2S,5R)-5-amino-2-methylpiperidin-1-yl)(2-(1-(cyclopropylmethyl)-6-(2-(methylsulfonyl)pyridin-3-yl)-1H-pyrrolo[2,3-b]pyridin-2-yl)-7-methoxy-1-methyl-1H-benzo[d]imidazol-5-yl)methanone]
53.5 | – | COc1cc(C(=O)N2C[C@H](N)[C@@H]3CC[C@H]2C3)cc2nc(-c3cc4ccc([C@@H](C)NC(=O)c5ccccc5)nc4n3CC3CC3)n(C)c12 [Example 222, N-((R)-1-(2-(5-((1S,4R,5R)-4-amino-2-azabicyclo[3.2.1]octane-2-carbonyl)-7-methoxy-1-methyl-1H-benzo[d]imidazol-2-yl)-1-(cyclopropylmethyl)-1H-pyrrolo[2,3-b]pyridin-6-yl)ethyl)benzamide]
50000 | – | COc1cc(C(=O)N2CCCC3(CCCN3)C2)cc2nc(-c3cc4ccc(N(C(F)F)S(C)(=O)=O)nc4n3CC3CC3)n(C)c12 (centres unmarked) [Example 74, N-(1-(cyclopropylmethyl)-2-(7-methoxy-1-methyl-5-(1,7-diazaspiro[4.5]decane-7-carbonyl)-1H-benzo[d]imidazol-2-yl)-1H-pyrrolo[2,3-b]pyridin-6-yl)-N-(difluoromethyl) methanesulfonamide]
– | 84.6 | COc1cc(C(=O)N2C[C@H](N)[C@@H]3CC[C@H]2C3)cc2nc(-c3cc4ccc([C@@H](C)NC(=O)C(C)(C)C(F)F)nc4n3CC3CC3)n(C)c12 [Example 323, N-((R)-1-(2-(5-((1S,4R,5R)-4-amino-2-azabicyclo[3.2.1]octane-2-carbonyl)-7-methoxy-1-methyl-1H-benzo[d]imidazol-2-yl)-1-(cyclopropylmethyl)-1H-pyrrolo[2,3-b]pyridin-6-yl)ethyl)-3,3-difluoro-2,2-dimethylpropanamide]
61.5 | – | COc1cc(C(=O)N2CCC[C@@H](N)C2)cc2nc(-c3cc4ccc([C@@H](C)NC(=O)C(C)(C)C)nc4n3CC3CC3)n(C3CC3)c12 [Example 128, N-((R)-1-(2-(5-((R)-3-aminopiperidine-1-carbonyl)-1-cyclopropyl-7-methoxy-1H-benzo[d]imidazol-2-yl)-1-(cyclopropylmethyl)-1H-pyrrolo[2,3-b]pyridin-6-yl)ethyl)pivalamide]
67.1 | – | COc1cc(C(=O)N2C[C@H](N)CCN2C)cc2nc(-c3cc4ccc([C@@H](C)NC(=O)c5cnn(C(F)F)c5)nc4n3CC3CC3)n(C)c12 [Example 170, N-((R)-1-(2-(5-((R)-5-amino-2-methylhexahydropyridazine-1-carbonyl)-7-methoxy-1-methyl-1H-benzo[d]imidazol-2-yl)-1-(cyclopropylmethyl)-1H-pyrrolo[2,3-b]pyridin-6-yl)ethyl)-1-(difluoromethyl)-1H-pyrazole-4-carboxamide]
141 | – | CCN(c1ccc2cc(-c3nc4cc(C(=O)N5CCC[C@@H](N)[C@H]5C)cc(OC)c4n3C3CC3)n(CC3CC3)c2n1)S(C)(=O)=O [Example 35, N-(2-(5-((2R,3R)-3-amino-2-methylpiperidine-1-carbonyl)-1-cyclopropyl-7-methoxy-1H-benzo[d]imidazol-2-yl)-1-(cyclopropylmethyl)-1H-pyrrolo [2,3-b]pyridin-6-yl)-N-ethylmethanesulfonamide]
364 | – | COc1cc(C(=O)N2C[C@H](N)CC[C@@H]2C)cc2nc(-c3cc4ccc(-c5ccc(N6CCC6)nc5C)nc4n3CC3CC3)n(C)c12 [Example 260, ((2S,5R)-5-amino-2-methylpiperidin-1-yl)(2-(6-(6-(azetidin-1-yl)-2-methylpyridin-3-yl)-1-(cyclopropylmethyl)-1H-pyrrolo[2,3-b]pyridin-2-yl)-7-methoxy-1-methyl-1H-benzo[d]imidazol-5-yl)methanone]
1360 | – | COc1cc(C(=O)N2C[C@H](N)CC[C@@H]2C)cc2nc(-c3cc4ccc(-c5ccc6[nH]ncc6c5C)nc4n3CC3CC3)n(C)c12 [Example 257, ((2S,5R)-5-amino-2-methylpiperidin-1-yl)(2-(1-(cyclopropylmethyl)-6-(4-methyl-1H-indazol-5-yl)-1H-pyrrolo[2,3-b]pyridin-2-yl)-7-methoxy-1-methyl-1H-benzo[d]imidazol-5-yl)methanone]
– | 65.9 | COc1cc(C(=O)N2C[C@H](N)[C@@H]3CC[C@H]2C3)cc2nc(-c3cc4ccc([C@@H](C)NC(=O)c5ccc(C(F)F)nc5)nc4n3CC3CC3)n(C)c12 [Example 297, N-((R)-1-(2-(5-((1S,4R,5R)-4-amino-2-azabicyclo[3.2.1]octane-2-carbonyl)-7-methoxy-1-methyl-1H-benzo[d]imidazol-2-yl)-1-(cyclopropylmethyl)-1H-pyrrolo[2,3-b]pyridin-6-yl)ethyl)-6-(difluoromethyl)nicotinamide]

SMILES | IC50 [1] [nM] | IC50 [2] [nM]
CS(=O)(=O)N(c1ccc2cc(-c3nc4cc(C(=O)N5[C@H]6CC[C@@H]5[C@H](N)C6)ccc4n3C3CC3)n(CC3CC3)c2n1)C(F)F [Example 65, N-(2-(5-((1R,2R,4S)-2-amino-7-azabicyclo[2.2.1]heptane-7-carbonyl)-1-cyclopropyl-1H-benzo[d]imidazol-2-yl)-1-(cyclopropylmethyl)-1H-pyrrolo[2,3-b]pyridin-6-yl)-N-(difluoromethyl) methanesulfonamide] | 47 | –
COc1cc(C(=O)N2[C@H]3CC[C@@H]2[C@H](N)C3)cc2nc(-c3cc4ccc([C@@H](C)NC(=O)N(C)C)nc4n3CC3CC3)n(C)c12 [Example 235, 3-((R)-1-(2-(5-((1R,2R,4S)-2-amino-7-azabicyclo[2.2.1]heptane-7-carbonyl)-7-methoxy-1-methyl-1H-benzo[d]imidazol-2-yl)-1-(cyclopropylmethyl)-1H-pyrrolo[2,3-b]pyridin-6-yl)ethyl)-1,1-dimethylurea] | 40.2 | –
COc1cc(C(=O)N2[C@H]3CC[C@@H]2[C@H](N)C3)cc2nc(-c3cc4ccc([C@@H](C)NC(C)=O)nc4n3CC3CC3)n(C)c12 [Example 118, N-((R)-1-(2-(5-((1R,2R,4S)-2-amino-7-azabicyclo[2.2.1]heptane-7-carbonyl)-7-methoxy-1-methyl-1H-benzo[d]imidazol-2-yl)-1-(cyclopropylmethyl)-1H-pyrrolo[2,3-b]pyridin-6-yl)ethyl)acetamide] | 45.6 | –
COc1cc(C(=O)N2[C@H]3CC[C@@H]2[C@H](N)C3)cc2nc(-c3cc4ccc([C@@H](C)NC(=O)C5CC(F)(F)C5)nc4n3CC3CC3)n(C)c12 [Example 204, N-((R)-1-(2-(5-((1R,2R,4S)-2-amino-7-azabicyclo[2.2.1]heptane-7-carbonyl)-7-methoxy-1-methyl-1H-benzo[d]imidazol-2-yl)-1-(cyclopropylmethyl)-1H-pyrrolo[2,3-b]pyridin-6-yl)ethyl)-3,3-difluorocyclobutane-1-carboxamide] | 47.4 | –

Source: US11878965B2, “Inhibitors of peptidylarginine deiminases” (Gilead Sciences, Inc., priority 2020, dated 2024)
